Data: ChEMBL document CHEMBL3396988, “Structure-based design of inhibitors of coagulation factor XIa with novel P1 moieties” (Bioorg Med Chem Lett, 2015)

Columns and labels:
Coagulation factor XI = Coagulation factor XI (Homo sapiens, UniProt P03951); test: Inhibition of human coagulation factor 11a at 25 degC
[1] = Half life in human liver microsomes; type: ADME
Trypsin = Trypsin (Homo sapiens, UniProt P07477+P07478+P35030); test: Inhibition of human trypsin at 25 degC; type: protein assay
[2] = Permeability of the compound at pH 7.4 by PAMPA method; type: ADME; settings: read-out: permeability
[3] = Clearance in dog at 0.5 mg/kg, po or 0.4 mg/kg, iv administered in cassette format; type: ADME, organism-based, Canis lupus familiaris; settings: in vivo
[4] = Volume of distribution at steady state in dog at 0.5 mg/kg, po or 0.4 mg/kg, iv administered in cassette format; type: ADME, organism-based, Canis lupus familiaris; settings: in vivo, read-out: Vdss
[5] = Half life in dog at 0.5 mg/kg, po or 0.4 mg/kg, iv administered in cassette format; type: ADME, organism-based, Canis lupus familiaris; settings: in vivo
[6] = Oral bioavailability in dog at 0.5 mg/kg administered in cassette format; type: ADME, organism-based, Canis lupus familiaris; settings: in vivo
Plasma = test: Anticoagulant activity in human plasma assessed as compound level causing 1.5 times increase in activated partial […] time; type: functional
Coagulation factor VII = biological target: T1, Coagulation factor VII (Homo sapiens, UniProt P08709); test: Inhibition of coagulation factor 7a (unknown origin)
T1 sequence (P08709 whole entry): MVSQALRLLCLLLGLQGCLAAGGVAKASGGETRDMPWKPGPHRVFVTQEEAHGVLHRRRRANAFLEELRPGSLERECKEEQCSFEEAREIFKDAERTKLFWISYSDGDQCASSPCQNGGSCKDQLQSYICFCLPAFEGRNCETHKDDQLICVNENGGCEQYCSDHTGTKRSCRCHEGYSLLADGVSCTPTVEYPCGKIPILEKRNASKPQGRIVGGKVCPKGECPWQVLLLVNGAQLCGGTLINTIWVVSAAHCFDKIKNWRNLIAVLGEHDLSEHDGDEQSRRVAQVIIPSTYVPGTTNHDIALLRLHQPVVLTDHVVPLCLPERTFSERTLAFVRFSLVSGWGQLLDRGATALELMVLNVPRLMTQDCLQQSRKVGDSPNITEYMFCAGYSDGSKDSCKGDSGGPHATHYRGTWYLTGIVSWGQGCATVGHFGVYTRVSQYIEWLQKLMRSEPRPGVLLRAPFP

Coagulation factor IX = Coagulation factor IX (Homo sapiens, UniProt P00740); test: Inhibition of coagulation factor 9a (unknown origin)
Coagulation factor X = Coagulation factor X (Homo sapiens, UniProt P00742); test: Inhibition of coagulation factor 10a (unknown origin)
Prothrombin = Prothrombin (Homo sapiens, UniProt P00734); test: Inhibition of thrombin (unknown origin)
Plasma kallikrein = Plasma kallikrein (Homo sapiens, UniProt P03952); test: Inhibition of plasma kallikrein (unknown origin)
Kallikrein-1 = Kallikrein-1 (Homo sapiens, UniProt P06870); test: Inhibition of tissue kallikrein (unknown origin)
[7] = Inhibition of chymotrypsin (unknown origin); parameters: species or system Homo sapiens
Plasminogen = Plasminogen (Homo sapiens, UniProt P00747); test: Inhibition of plasmin (unknown origin)
[8] = biological target: Tissue-type plasminogen activator (Homo sapiens, UniProt P00750); test: Inhibition of TPA (unknown origin)
Chain of Tissue-type plasminogen activator (P00750 whole entry): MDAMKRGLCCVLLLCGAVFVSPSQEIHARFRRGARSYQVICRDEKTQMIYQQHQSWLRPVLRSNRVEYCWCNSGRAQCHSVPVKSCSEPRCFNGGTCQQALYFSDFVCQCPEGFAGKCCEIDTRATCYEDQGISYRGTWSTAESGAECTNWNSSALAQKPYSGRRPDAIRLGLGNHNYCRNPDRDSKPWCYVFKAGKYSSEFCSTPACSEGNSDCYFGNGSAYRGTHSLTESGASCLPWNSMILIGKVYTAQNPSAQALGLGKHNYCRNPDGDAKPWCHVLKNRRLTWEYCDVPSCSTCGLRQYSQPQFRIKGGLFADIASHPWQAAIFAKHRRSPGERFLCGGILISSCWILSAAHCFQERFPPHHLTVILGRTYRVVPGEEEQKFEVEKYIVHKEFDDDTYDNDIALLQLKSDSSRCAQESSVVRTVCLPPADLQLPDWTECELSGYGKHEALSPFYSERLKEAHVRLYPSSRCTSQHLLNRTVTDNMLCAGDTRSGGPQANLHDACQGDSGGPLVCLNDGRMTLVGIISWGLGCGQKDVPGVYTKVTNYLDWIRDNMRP

Chain of Coagulation factor XI (P03951 19-387 limits assumed): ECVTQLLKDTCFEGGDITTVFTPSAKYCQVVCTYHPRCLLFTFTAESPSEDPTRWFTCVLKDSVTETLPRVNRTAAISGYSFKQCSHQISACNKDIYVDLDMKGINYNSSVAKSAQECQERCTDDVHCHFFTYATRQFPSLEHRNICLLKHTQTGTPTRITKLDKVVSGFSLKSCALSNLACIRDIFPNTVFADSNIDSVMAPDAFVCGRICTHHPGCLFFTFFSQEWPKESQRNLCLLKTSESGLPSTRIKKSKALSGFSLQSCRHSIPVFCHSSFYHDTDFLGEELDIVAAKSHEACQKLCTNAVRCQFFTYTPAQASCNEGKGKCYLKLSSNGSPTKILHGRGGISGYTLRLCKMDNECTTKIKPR
Chain of Coagulation factor XI (P03951 388-625 limits assumed): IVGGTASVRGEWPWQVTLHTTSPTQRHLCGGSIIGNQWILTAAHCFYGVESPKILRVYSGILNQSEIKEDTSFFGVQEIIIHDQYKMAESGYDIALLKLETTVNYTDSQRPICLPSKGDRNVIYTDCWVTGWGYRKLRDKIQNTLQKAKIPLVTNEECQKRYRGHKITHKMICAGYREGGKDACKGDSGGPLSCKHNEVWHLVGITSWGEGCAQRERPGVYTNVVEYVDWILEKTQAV
Chain of Coagulation factor IX (P00740 47-191 limits assumed): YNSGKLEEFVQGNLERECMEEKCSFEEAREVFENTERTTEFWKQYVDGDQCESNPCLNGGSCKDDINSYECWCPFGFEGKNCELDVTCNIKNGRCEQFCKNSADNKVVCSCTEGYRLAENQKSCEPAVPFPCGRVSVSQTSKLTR
Chain of Coagulation factor IX (P00740 227-461 limits assumed): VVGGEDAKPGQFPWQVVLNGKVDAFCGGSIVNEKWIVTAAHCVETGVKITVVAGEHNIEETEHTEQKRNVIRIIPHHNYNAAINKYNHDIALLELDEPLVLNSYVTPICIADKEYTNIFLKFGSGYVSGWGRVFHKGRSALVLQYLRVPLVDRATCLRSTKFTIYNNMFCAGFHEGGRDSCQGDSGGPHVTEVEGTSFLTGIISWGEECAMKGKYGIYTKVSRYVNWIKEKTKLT
Chain of Plasma kallikrein (P03952 20-390 limits assumed): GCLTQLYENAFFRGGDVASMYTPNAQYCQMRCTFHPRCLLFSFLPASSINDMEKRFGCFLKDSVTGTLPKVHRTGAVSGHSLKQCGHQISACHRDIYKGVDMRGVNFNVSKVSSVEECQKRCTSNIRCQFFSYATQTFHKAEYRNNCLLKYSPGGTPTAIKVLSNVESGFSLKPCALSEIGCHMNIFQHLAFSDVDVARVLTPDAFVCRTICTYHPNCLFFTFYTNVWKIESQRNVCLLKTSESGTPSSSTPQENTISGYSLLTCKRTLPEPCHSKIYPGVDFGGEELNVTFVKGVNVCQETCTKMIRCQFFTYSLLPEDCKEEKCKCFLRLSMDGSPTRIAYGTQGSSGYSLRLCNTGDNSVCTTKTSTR
Chain of Plasma kallikrein (P03952 391-638 limits assumed): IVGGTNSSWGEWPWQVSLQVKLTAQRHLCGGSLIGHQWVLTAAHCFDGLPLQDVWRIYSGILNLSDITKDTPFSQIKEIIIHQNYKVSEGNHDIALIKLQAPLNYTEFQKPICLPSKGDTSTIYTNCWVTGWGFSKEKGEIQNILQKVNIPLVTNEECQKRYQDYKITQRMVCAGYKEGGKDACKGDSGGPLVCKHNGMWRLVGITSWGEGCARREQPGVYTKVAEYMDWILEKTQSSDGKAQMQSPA
Chain of Kallikrein-1 (P06870 whole entry): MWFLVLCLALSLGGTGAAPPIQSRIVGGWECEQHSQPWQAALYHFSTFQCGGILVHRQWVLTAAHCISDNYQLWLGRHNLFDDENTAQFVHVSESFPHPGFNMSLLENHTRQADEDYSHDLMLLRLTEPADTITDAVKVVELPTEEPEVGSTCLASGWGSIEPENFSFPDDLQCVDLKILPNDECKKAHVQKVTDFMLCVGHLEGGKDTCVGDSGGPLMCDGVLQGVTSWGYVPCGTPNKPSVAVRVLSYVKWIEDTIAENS
Chain of Plasminogen (P00747 97-580 limits assumed): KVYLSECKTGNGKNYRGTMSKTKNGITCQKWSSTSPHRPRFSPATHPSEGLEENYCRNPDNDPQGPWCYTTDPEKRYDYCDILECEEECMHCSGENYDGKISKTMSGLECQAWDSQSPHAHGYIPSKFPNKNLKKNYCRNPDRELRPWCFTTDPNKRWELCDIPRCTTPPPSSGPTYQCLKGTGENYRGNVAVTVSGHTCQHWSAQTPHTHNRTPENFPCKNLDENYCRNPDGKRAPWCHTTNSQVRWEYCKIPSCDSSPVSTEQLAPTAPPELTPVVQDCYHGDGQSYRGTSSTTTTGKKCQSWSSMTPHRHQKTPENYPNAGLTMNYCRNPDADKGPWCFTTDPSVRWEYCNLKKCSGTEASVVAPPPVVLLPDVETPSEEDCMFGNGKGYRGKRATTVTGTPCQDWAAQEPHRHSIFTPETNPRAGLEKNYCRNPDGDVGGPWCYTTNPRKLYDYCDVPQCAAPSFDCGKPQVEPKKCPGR
Chain of Plasminogen (P00747 581-810 limits assumed): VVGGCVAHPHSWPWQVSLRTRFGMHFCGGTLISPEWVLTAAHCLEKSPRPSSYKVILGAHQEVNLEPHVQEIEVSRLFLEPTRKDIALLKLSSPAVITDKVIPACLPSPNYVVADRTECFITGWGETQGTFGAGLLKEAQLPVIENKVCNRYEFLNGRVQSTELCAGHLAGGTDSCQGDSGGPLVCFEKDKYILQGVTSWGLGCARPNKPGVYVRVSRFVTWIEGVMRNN
Chain of Coagulation factor X (P00742 41-179 limits assumed): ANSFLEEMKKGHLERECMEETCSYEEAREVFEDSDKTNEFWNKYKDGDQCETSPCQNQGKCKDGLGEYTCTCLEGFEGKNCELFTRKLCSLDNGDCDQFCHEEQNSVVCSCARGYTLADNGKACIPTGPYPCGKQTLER
Chain of Coagulation factor X (P00742 235-488 limits assumed): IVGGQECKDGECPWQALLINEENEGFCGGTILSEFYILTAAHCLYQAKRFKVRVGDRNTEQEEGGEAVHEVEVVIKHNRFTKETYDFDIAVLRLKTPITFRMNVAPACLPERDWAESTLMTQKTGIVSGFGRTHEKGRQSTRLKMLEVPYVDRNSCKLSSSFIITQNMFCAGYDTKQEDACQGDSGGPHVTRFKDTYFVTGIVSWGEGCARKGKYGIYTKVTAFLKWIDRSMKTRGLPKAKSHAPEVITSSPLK

Nc1n[nH]c2cc(-c3nc([C@H](Cc4ccccc4)NC(=O)NCc4cc(Cl)ccc4-n4cccn4)[nH]c3Cl)ccc12
Ki (Coagulation factor XI): 450 nM
half-life [1]: < 0.0167 h

COc1ccc(C(=O)N[C@@H](Cc2ccccc2)c2nc(-c3ccc4c(N)n[nH]c4c3)c(Cl)[nH]2)c(F)c1
Ki (Coagulation factor XI): 280 nM
Ki (Trypsin): > 6000 nM

Nc1n[nH]c2cc(-c3nc([C@H](Cc4ccccc4)NC(=O)NCc4cc(Cl)ccc4F)[nH]c3Cl)ccc12
Ki (Coagulation factor XI): 31 nM

Cc1ccc(C(=O)N[C@@H](Cc2ccccc2)c2nc(-c3ccc4c(N)n[nH]c4c3)c(Cl)[nH]2)c(F)c1
Ki (Coagulation factor XI): 200 nM
Ki (Trypsin): > 5000 nM
Papp [2]: 54.7 ×10⁻⁶ cm/s
clearance [3]: 9 mL/min/kg
Vd [4]: 1.9 L/kg
half-life [5]: 1.8 h
bioavailability [6]: 30%

Nc1n[nH]c2cc(-c3nc([C@H](Cc4ccccc4)NC(=O)NCc4cc(Cl)ccc4-n4cnnn4)[nH]c3Cl)ccc12
Ki (Coagulation factor XI): 1.5 nM
clearance [3]: 31.2 mL/min/kg
Vd [4]: 1.4 L/kg
half-life [5]: 2.1 h
bioavailability [6]: 0%
Activity (Plasma): 1.8 µM
half-life [1]: < 0.0167 h

COC(=O)Nc1ccc(-c2c[nH]c([C@H](Cc3ccccc3)NC(=O)/C=C/c3cc(Cl)ccc3-n3cnnn3)n2)cc1
Ki (Coagulation factor VII): > 13000 nM
Ki (Coagulation factor IX): > 60000 nM
Ki (Coagulation factor X): 1500 nM
Ki (Prothrombin): > 15000 nM
Ki (Plasma kallikrein): 240 nM
Ki (Kallikrein-1): > 30000 nM
Ki [7]: 1300 nM
Ki (Plasminogen): > 41000 nM
Ki [8]: 17000 nM
Ki (Coagulation factor XI): 6.7 nM
Ki (Trypsin): > 6200 nM
Vd [4]: 3.4 L/kg
half-life [5]: 2.4 h
bioavailability [6]: 10.4%
Activity (Plasma): 8.6 µM

COC(=O)Nc1ccc(-c2nc([C@H](Cc3ccccc3)NC(=O)NCc3cc(Cl)ccc3-n3cnnn3)[nH]c2Cl)cc1
Ki (Coagulation factor XI): 3.4 nM
clearance [3]: 34.5 mL/min/kg
Vd [4]: 2.8 L/kg
half-life [5]: 2.8 h
Activity (Plasma): 5.6 µM
half-life [1]: < 0.0167 h

NCc1ccc(C(=O)N[C@@H](Cc2ccccc2)c2nc(-c3ccc4c(N)n[nH]c4c3)c(Cl)[nH]2)c(F)c1
Ki (Coagulation factor XI): 1.03 nM
Ki (Trypsin): 58 nM

COC(=O)Nc1ccc(-c2nc([C@H](Cc3ccccc3)NC(=O)CCc3cc(Cl)ccc3-n3cnnn3)[nH]c2Cl)cc1
Ki (Coagulation factor XI): 1.9 nM
clearance [3]: 38.3 mL/min/kg
Vd [4]: 4.4 L/kg
half-life [5]: 2.6 h
Activity (Plasma): 5.2 µM

COc1ccc(Cl)cc1CNC(=O)N[C@@H](Cc1ccccc1)c1nc(-c2ccc3c(N)n[nH]c3c2)c(Cl)[nH]1
Ki (Coagulation factor XI): 75 nM

COc1cc(F)c(C(=O)N[C@@H](Cc2ccccc2)c2nc(-c3ccc4c(N)n[nH]c4c3)c(Cl)[nH]2)c(F)c1
Ki (Coagulation factor XI): 65 nM
Ki (Trypsin): > 6000 nM
Papp [2]: 23.4 ×10⁻⁶ cm/s
clearance [3]: 15.2 mL/min/kg
Vd [4]: 1.3 L/kg
half-life [5]: 1.2 h
bioavailability [6]: 49%

Nc1nccc2c1CCC(C(=O)N[C@@H](Cc1ccccc1)c1nc(-c3ccc4c(N)n[nH]c4c3)c(Cl)[nH]1)C2 (single isomer, unassigned; diastereomer A)
Ki (Coagulation factor XI): 2.6 nM
Ki (Trypsin): 2800 nM
Papp [2]: 0.15 ×10⁻⁶ cm/s
clearance [3]: 34.8 mL/min/kg
Vd [4]: 2.8 L/kg
half-life [5]: 2.3 h
bioavailability [6]: < 2%

C[C@H]1CC[C@H](C(=O)N[C@@H](Cc2ccccc2)c2nc(-c3ccc4c(N)n[nH]c4c3)c(Cl)[nH]2)CC1
Ki (Coagulation factor XI): 68 nM
Ki (Trypsin): > 6000 nM
Papp [2]: 0.46 ×10⁻⁶ cm/s
clearance [3]: 15.4 mL/min/kg
Vd [4]: 0.9 L/kg
half-life [5]: 1.5 h
bioavailability [6]: < 1%

COC(=O)Nc1ccc(-c2nc([C@H](Cc3ccccc3)NC(=O)/C=C/c3cc(Cl)ccc3-n3cnnn3)[nH]c2Cl)cc1
Ki (Coagulation factor XI): 2.7 nM
clearance [3]: 9 mL/min/kg
Vd [4]: 1.6 L/kg
half-life [5]: 3.1 h
bioavailability [6]: 3%
Activity (Plasma): 5.3 µM
half-life [1]: 0.55 h

Nc1n[nH]c2cc(-c3nc([C@H](Cc4ccccc4)NC(=O)c4cc(Cl)ccc4F)[nH]c3Cl)ccc12
Ki (Coagulation factor XI): 530 nM
Ki (Trypsin): > 5000 nM

Cc1ccc(Cl)cc1CNC(=O)N[C@@H](Cc1ccccc1)c1nc(-c2ccc3c(N)n[nH]c3c2)c(Cl)[nH]1
Ki (Coagulation factor XI): 53 nM

NC(=O)c1ccc(C(=O)N[C@@H](Cc2ccccc2)c2nc(-c3ccc4c(N)n[nH]c4c3)c(Cl)[nH]2)cc1
Ki (Coagulation factor XI): 310 nM
Ki (Trypsin): > 5000 nM
clearance [3]: 12.5 mL/min/kg
Vd [4]: 1.5 L/kg
half-life [5]: 1.4 h
bioavailability [6]: 26%

Nc1nccc2c1CCC(C(=O)N[C@@H](Cc1ccccc1)c1nc(-c3ccc4c(N)n[nH]c4c3)c(Cl)[nH]1)C2 (single isomer, unassigned; diastereomer B)
Ki (Coagulation factor XI): 2.5 nM
Ki (Trypsin): 360 nM

Nc1nccc2c1CCC(C(=O)N[C@@H](Cc1ccccc1)c1nc(-c3ccc4c(N)n[nH]c4c3)c(Cl)[nH]1)C2 (stereo in doubt; 6)
Ki (Coagulation factor XI): 2.15 nM
Ki (Trypsin): 1430 nM

Nc1n[nH]c2cc(-c3nc([C@H](Cc4ccccc4)NC(=O)NCc4c(F)ccc(Cl)c4F)[nH]c3Cl)ccc12
Ki (Coagulation factor XI): 23 nM

NCC12CCC(C(=O)N[C@@H](Cc3ccccc3)c3nc(-c4ccc5c(N)n[nH]c5c4)c(Cl)[nH]3)(CC1)CC2
Ki (Coagulation factor XI): 1.49 nM
Ki (Trypsin): 1040 nM

Nc1n[nH]c2cc(C(=O)N[C@@H](Cc3ccccc3)c3nc(-c4ccc5c(N)n[nH]c5c4)c(Cl)[nH]3)ccc12
Ki (Coagulation factor XI): 58 nM
Ki (Trypsin): 1400 nM

Nc1n[nH]c2cc(-c3nc([C@H](Cc4ccccc4)NC(=O)c4ccc5c(N)noc5c4)[nH]c3Cl)ccc12
Ki (Coagulation factor XI): 125 nM
Ki (Trypsin): > 5000 nM

Nc1n[nH]c2cc(-c3nc([C@H](Cc4ccccc4)NC(=O)NCc4cc(Cl)ccc4-n4cncn4)[nH]c3Cl)ccc12
Ki (Coagulation factor XI): 46 nM
Activity (Plasma): 34 µM
half-life [1]: < 0.0167 h

NCc1ccc(Cl)cc1CNC(=O)N[C@@H](Cc1ccccc1)c1nc(-c2ccc3c(N)n[nH]c3c2)c(Cl)[nH]1
Ki (Coagulation factor XI): 5.8 nM
Activity (Plasma): 3.9 µM

Nc1nccc2cc(C(=O)N[C@@H](Cc3ccccc3)c3nc(-c4ccc5c(N)n[nH]c5c4)c(Cl)[nH]3)ccc12
Ki (Coagulation factor XI): 19 nM
Ki (Trypsin): 380 nM
Papp [2]: 3.8 ×10⁻⁶ cm/s
clearance [3]: 49.5 mL/min/kg
Vd [4]: 1 L/kg
half-life [5]: 0.14 h
bioavailability [6]: < 2%

Nc1n[nH]c2cc(-c3nc([C@H](Cc4ccccc4)NC(=O)NCc4cccc(Cl)c4)[nH]c3Cl)ccc12
Ki (Coagulation factor XI): 54 nM

NCc1ccc(C(=O)N[C@@H](Cc2ccccc2)c2nc(-c3ccc4c(N)n[nH]c4c3)c(Cl)[nH]2)cc1
Ki (Coagulation factor XI): 1.16 nM
Ki (Trypsin): 59 nM

Nc1n[nH]c2cc(-c3nc([C@H](Cc4ccccc4)NC(=O)NCc4cc(Cl)ccc4C(F)(F)F)[nH]c3Cl)ccc12
Ki (Coagulation factor XI): 240 nM

Nc1n[nH]c2cc(-c3nc([C@H](Cc4ccccc4)NC(=O)NCc4cccc(Cl)c4F)[nH]c3Cl)ccc12
Ki (Coagulation factor XI): 57 nM

Cc1ccc(C(=O)N[C@@H](Cc2ccccc2)c2nc(-c3ccc4c(N)n[nH]c4c3)c(Cl)[nH]2)cc1
Ki (Coagulation factor XI): 390 nM
Ki (Trypsin): > 5000 nM

Nc1n[nH]c2cc(-c3nc([C@H](Cc4ccccc4)NC(=O)[C@H]4CC[C@H](C(N)=O)CC4)[nH]c3Cl)ccc12
Ki (Coagulation factor XI): 2900 nM
Ki (Trypsin): > 5000 nM
